Laboratory results reported in US20250002532A1, “A NOVEL PEPTIDE AND THE USE THEREOF” (Rudacure Corporation, priority 2023, published 2025).
“Also recorded” adds a separate entry of the source. Residues, ends and D or L forms follow the SMILES beside them. No end group written: not given here.

Experiments:
SNL pain model = test: SNL pain model, Von Frey test; conditions: 2 mg/kg I.P.; one, three and seven hours after administration; FIG. 7
CIPN pain model = test: CIPN (paclitaxel) pain model, Von Frey test; type: in vivo, SD rat; conditions: one, three and seven hours after administration, FIG. 8
Procedure: • a. […] Preparation of positive control material: Prebabalin was homogeneously dissolved in a saline solution at a concentration of 30 mg/10 mL and used. • e.
• a. […] Chemotherapy induced peripheral neuropathy (CIPN) pain modeling
Paclitaxel was dissolved at 2 mg/10 ml in a solution prepared by mixing cremophor EL and absolute ethanol at a 1:1 ratio, and the resulting solution was administered intraperitoneally in the amount of 2 ml each. Chemotherapy-induced pain was induced by administering paclitaxel once a day at 24-hour intervals for 4 days. • c. Confirmation of pain induction
Drug administration and confirmation of analgesic efficacy
Statistical analysis processing

CCI pain model = test: CCI pain model, Von Frey test; conditions: amount printed 1 mg/ml (0.1 mg/mL, 200 μL I.P.); two hours after administration; FIG. 6
pain caused by formalin = test: Formalin test (pain behavioral response); type: in vivo, ICR mouse; conditions: 2nd phase (20 to 40 minutes), vs saline group, FIG. 4
Procedure: An in vivo test was performed with the peptides of SEQ ID NOS: 11 and 12.
• a. […] Preparation of positive control material: Pregabalin was homogeneously dissolved in a saline solution at a concentration of 3 mg/mL. • e.
• a. Saline solution, pregabalin, peptide of SEQ ID NO: 11, and peptide of SEQ ID NO: 12, the administered materials corresponding to each group, were administered in advance about one hour before formalin administration. • b. One hour after the test material administration to each group, 20 μL of 2% formalin was injected subcutaneously into the sole of the right foot. • c. After administering […] to each subject, the time at which pain behavioral responses (licking, biting, etc.) appeared was measured in the intervals of 0 to 5 minutes and 20 to 40 minutes. • d. Grooming in regions other than the region where formalin was administered was not counted. • e.
The formalin test is a method of evaluating the degree of pain by subcutaneously injecting formalin into the dorsum of the hind paw of a mouse and then observing the behavior that appears thereafter. The degree of pain is evaluated by the number of times or duration of flinching responses. […]

pain caused by capsaicin = test: Capsaicin test (pain behavioral response); type: in vivo, C57BL/6N mouse; conditions: 0.5 mg/kg I.P. one hour before 0.01% capsaicin; 0 to 5 minutes; FIG. 5
Procedure: An in vivo test was performed with the peptides of SEQ ID NOS: 5, 6, 9, and 11.
• a. […] Preparation of positive control material: BCTC was homogeneously dissolved in a saline solution at a concentration of 3 mg/mL. • e.
• a. Preparation of test materials: The peptides of SEQ ID NOS: 5, 6, 9, and 11 were dissolved in a saline solution to prepare at a concentration of 0.05 mg/mL. • b.
• a. Saline solution, BCTC, and peptides of SEQ ID NOS: 5, 6, 9, and 11, the administered materials corresponding to each group, were administered in advance about one hour before capsaicin administration. • b. One hour after the test material administration to each group, 20 μL of 0.01% capsaicin was injected subcutaneously into the sole of the right foot. • c. After administering […] to each subject, the time at which pain behavioral responses (licking, biting, etc.) appeared was measured in the interval of 0 to 5 minutes. • d. Grooming in regions other than the region where capsaicin was administered was not counted. • e.
In a previous study, the pain inhibiting effect was confirmed through a formalin test. To confirm whether such pain inhibiting phenomenon is through TRPV1, the pain response pattern was investigated after subcutaneous injection of capsaicin, which is one of the TRPV1 activators.

hTRPV1 = target: T1, hTRPV1 (Homo sapiens, UniProt Q8NER1); test: Calcium imaging (Fura-2AM) of capsaicin-induced Ca2+ influx in TRPV1 CHO-K1 cells; type: cell-based; conditions: for TRPV1 inhibitory activity / inhibition rate (screening): screening of peptides; for inhibition at 0.001 µM: peptide at 1 nM; for inhibition at 0.005 µM: peptide at 5 nM; for inhibition at 0.1 µM: peptide at 100 nM; for influx of calcium into TRPV1 channel (ΔF/F): FIG. 1, peptide injected
T1 construct: expressed in transfected cells; the earlier reading calls it TRPV1 CHO-K1 cells
Procedure: The TRPV1 inhibitory effect of various short-length peptides, including the 49 peptides in Tables 5 and 6, was evaluated by the following method.
All reagents used in cell culture were sterilized products. The culture medium of the cell line is shown in Table 7 below, and the culture was performed in a cell incubator with under the culture conditions of […] and 37° C. In addition, when cryopreserved cells (stock) were thawed and used, they were subcultured two to three times before use in the test.
After removing the cell culture medium by suction, 10 ml DPBS was added to wash the cells, and then the DPBS was removed by suction. 2 ml 0.05% trypsin-EDTA was added, and then the cells were cultured in a cell incubator at 37° C. for three to five minutes. Through a microscope, detachment of the cells from the bottom surface of the culture dish was confirmed, and 8 ml of the cell culture medium including 10% FBS was added to inactivate the trypsin-EDTA. Cells in the culture dish were collected, pipetted, and transferred to a 15 ml tube.
Centrifugation was performed at 800 rpm for five minutes, and all the supernatant except the cell pellet was removed. Then, the cell culture medium was added, and the pellet was carefully loosened.
After measuring the number of cells with a hemocytometer, the cells were dispensed at 1×10^3 cells/10 μl/coverslip at the center of a 12 mm cover slip coated with poly-D-lysine.
A 35π petri dish containing the cover slip was stored in a cell incubator, and when the cells were attached to the cover slip after one to two hours, 2 ml of the cell culture medium was added and stored in the cell incubator again.
The sample was added to 200 ml distilled water (DW) and mixed according to the composition in Table 8 below.
The pH was adjusted to a range of 7.3 to 7.4 using 5 N NaOH, and then distilled water (DW) was added to adjust the final volume to 250 ml.
Capsaicin was dissolved in 100% ethanol to prepare a 10 mM stock. Capsaicin, a TRPV1 activating substance, was diluted in the extracellular solution to a concentration of 0.1-1 mM before using in the experiment.
The test material (peptide according to the present invention) was dissolved in a solvent and then diluted to an appropriate concentration in the extracellular solution before using in the experiment.
2 mM Fura-2AM was prepared by adding 24.95 ml of DMSO to 50 mg of Fura 2AM powder, which is used as a membrane-permeable fluorescent marker. After the experiment, the remaining Fura-2AM was stored at −20° C. for reuse and covered with silver foil to prevent exposure to light.
2 mM Fura-2AM was diluted 1/1000 in a cell culture medium without FBS and antibiotics to prepare 1 ml Fura-2AM (based on a 35π Petri dish) to a final concentration of […]. After removing the cell culture medium in the 35π Petri dish, the cells were washed once with 2 ml DPBS. 1 ml of the Fura-2AM solution prepared above was transferred to a 35π Petri dish, and the cells were cultured in a cell incubator for 40 min.
To operate calcium imaging equipment, an IRIS-9 camera was turned on and then a computer was powered on. To operate a perfusion system, a suction device was powered on, 20 to 30 ml of distilled water was added to each perfusion syringe, and suction was performed while allowing the distilled water to flow into the chamber (syringe wash).
The extracellular solution and test materials prepared in advance were placed in the syringes washed with distilled water, and smooth flow of the solutions from each syringe into the chamber was confirmed. At this time, clips were used to block all the lines except one syringe line to be checked. In other words, the flow of the solution through only a single syringe line without the clip was checked (When the solution flows through two or more lines, the solutions could have been mixed.).

[1] = CHO-K1, read-out: hTRPV1 activity inhibited compared to the control group

T1 sequence (Q8NER1 whole entry): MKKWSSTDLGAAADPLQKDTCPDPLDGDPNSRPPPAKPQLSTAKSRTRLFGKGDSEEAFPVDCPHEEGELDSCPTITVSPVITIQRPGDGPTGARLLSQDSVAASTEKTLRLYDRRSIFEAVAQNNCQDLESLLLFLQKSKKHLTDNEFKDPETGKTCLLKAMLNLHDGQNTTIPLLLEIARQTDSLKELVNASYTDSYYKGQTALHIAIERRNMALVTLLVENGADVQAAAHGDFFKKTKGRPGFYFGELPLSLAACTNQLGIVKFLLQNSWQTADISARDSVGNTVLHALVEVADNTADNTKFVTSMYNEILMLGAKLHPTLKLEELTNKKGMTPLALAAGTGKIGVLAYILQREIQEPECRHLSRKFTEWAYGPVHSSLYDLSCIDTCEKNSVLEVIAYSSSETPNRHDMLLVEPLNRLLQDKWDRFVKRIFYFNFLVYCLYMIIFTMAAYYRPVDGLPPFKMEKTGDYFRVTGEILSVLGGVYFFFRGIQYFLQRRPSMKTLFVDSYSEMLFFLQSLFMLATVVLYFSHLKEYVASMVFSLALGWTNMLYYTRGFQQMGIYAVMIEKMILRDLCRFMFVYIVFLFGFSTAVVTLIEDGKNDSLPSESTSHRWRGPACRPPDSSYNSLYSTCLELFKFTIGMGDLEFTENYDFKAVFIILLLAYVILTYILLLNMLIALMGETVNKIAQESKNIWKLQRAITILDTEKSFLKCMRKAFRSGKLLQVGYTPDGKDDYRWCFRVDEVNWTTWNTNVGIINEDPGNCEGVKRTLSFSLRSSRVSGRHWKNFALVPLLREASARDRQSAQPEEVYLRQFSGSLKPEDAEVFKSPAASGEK

Compound	pain behavioral response threshold (Von Frey), after vs before administration (SNL pain model)	pain behavioral response threshold (Von Frey), after vs before administration (CIPN pain model; 4 mg/kg I.P.)	pain behavioral response threshold (Von Frey), after vs before administration (CCI pain model)	pain behavioral response (licking, biting) after formalin (pain caused by formalin; 8 mg/kg I.P. one hour before 2% formalin)	pain behavioral response (licking, biting) after capsaicin (pain caused by capsaicin)	TRPV1 inhibitory activity / inhibition rate (screening) (hTRPV1)	pain behavioral response threshold (Von Frey), after vs before administration (CIPN pain model; 2 mg/kg I.P.)	pain behavioral response (licking, biting) after formalin (pain caused by formalin; 4 mg/kg I.P. one hour before 2% formalin)	inhibition at 0.0005 µM (hTRPV1; CHO-K1, peptide at 0.5 nM, read-out: hTRPV1 activity inhibited compared to the control group)	inhibition at 0.001 µM (hTRPV1; [1])	inhibition at 0.005 µM (hTRPV1; [1])	inhibition at 0.1 µM (hTRPV1; [1])	influx of calcium into TRPV1 channel (ΔF/F) (hTRPV1)	inhibition at 0.01 µM (hTRPV1; CHO-K1, peptide at 10 nM, read-out: hTRPV1 activity inhibited compared to the control group)	inhibition at 0.05 µM (hTRPV1; CHO-K1, peptide at 50 nM, read-out: hTRPV1 activity inhibited compared to the control group)	inhibition at 0.5 µM (hTRPV1; CHO-K1, peptide at 500 nM, read-out: hTRPV1 activity inhibited compared to the control group)
YGQCYMWMQKW [SEQ ID NO: 11]	the pain behavioral response threshold increased after the administration compared to before the administration	the pain behavioral response threshold increased after the administration compared to before the administration	the pain behavioral response threshold increased after the administration compared to before the administration	significant decrease of the pain behavioral response in the 2nd phase	significant decrease of the pain behavioral response; also recorded: inhibited the pain caused by the peripheral and central sensitization	high inhibition rate of TRPV1	–	–	–	–	–	–	–	–	–	–
YGQCYMYMQKW [SEQ ID NO: 12]	the pain behavioral response threshold increased after the administration compared to before the administration	–	the pain behavioral response threshold increased after the administration compared to before the administration	–	–	high inhibition rate of TRPV1	the pain behavioral response threshold increased after the administration compared to before the administration	significant decrease of the pain behavioral response in the 2nd phase	–	–	–	–	–	–	–	–
SGQCYMFMQKY [SEQ ID NO: 6, SGQCYMFMQKY]	–	–	–	–	significant decrease of the pain behavioral response; also recorded: inhibited the pain caused by the peripheral and central sensitization	high inhibition rate of TRPV1	–	–	~9%	16%	51%	70%	the influx of calcium was significantly reduced	–	–	–
C[C@H](NC(=O)[C@H](CCCCN)NC(=O)[C@@H](N)Cc1ccc(O)cc1)C(=O)N[C@@H](CC(N)=O)C(=O)N[C@@H](Cc1ccc(O)cc1)C(=O)N[C@@H](CS)C(=O)N[C@@H](CO)C(=O)NCC(=O)N[C@@H](CCC(N)=O)C(=O)N[C@@H](CS)C(=O)N[C@@H](Cc1ccc(O)cc1)C(=O)O [SEQ ID NO: 5, YKANYCSGQCY] (H-YKANYCSGQCY-OH; N-terminus and C-terminus assumed)	–	–	–	–	significant decrease of the pain behavioral response; also recorded: inhibited the pain caused by the peripheral and central sensitization	high inhibition rate of TRPV1	–	–	–	~20%	53%	77%	the influx of calcium was significantly reduced	75%	79%	95%
AGQCYMFMQKY [SEQ ID NO: 9]	–	–	–	–	inhibited the pain caused by the peripheral and central sensitization	high inhibition rate of TRPV1	–	–	–	–	–	–	–	–	–	–
